This is an account of results in US9688653B2, “Ethoxyphenyl thienyl compounds and methods for the treatment of bacterial infections” (Duke University, priority 2013, dated 2017).

For series [1], the system named is E. coli K1 strain UTI89. The series is described as follows: microbe, parasite or virus in culture. Conditions: for % Inhibition at 100 μM: HTS primary screen. From the text:
The ability of the […] to bind to bacterial capsule, infect, and lyse E. coli UT189 was used as the primary assay to identify the effects of screened compounds on bacterial capsule formation. The phenotypic end-point assay measured the fluorescence generated by cellular processing of Alamar Blue as a direct indicator of cell viability. A total of […] compounds were screened using the primary assay. […] Hits were further evaluated using […] secondary assays for alternative measurement of compound-induced reduction in bacterial capsule formation (secondary assays 1 and 2) and specificity (secondary assays 3 and 4). Confirmed actives with an SI>5 were further investigated and subjected to chemical optimization, followed by secondary assay evaluation. Secondary assays more closely characterized the ability of the compounds to reduce bacterial capsule formation and can be used to examine the mechanism of action of the compounds. The combination of primary assay (to measure capsule reduction), counter assay (for general eukaryotic cell toxicity) and secondary assay (to measure reduction in capsule formation and specificity) were combined to allow a determination of probe efficacy, selectivity, and specificity.
A. Primary Assay: Screening for Inhibitors of Bacterial Capsule Biogenesis.
Primary assay: An end-point assay to measure the amount of K1 phage-induced bacterial cell lysis was employed to determine the compound effect on capsule biogenesis. K1 bacteriophage specifically binds the bacterial capsule during the initial stages of infection. Bacteria without capsule cannot be infected and lysed by the bacteriophage. […] A total of 338,740 compounds were screened at 100 μM in the primary screen Inhibition of phage lysis was calculated relative to the mean of the bacterial (positive) control on each microtiter plate. […] For calculation of S/B/Z value, and CV, the following formulae (in which SD stands for standard deviation) were used: S/B=mean signal/mean background; Z=1-3SD of sample+3SD of control mean of sample−mean of control; % CV=(SD mean signal/mean signal)×100.
IC50 values were calculated using a 4 parameter Levenburg-Marquardt algorithm, with the maximum and minimum locked at 0 and 100 respectively.
Primary assay: The primary assay was conducted in the 1,536 well plate format. Bacterial cultures of E. coli K1 strain UTI89 (cystitis isolate) and isogenic capsule mutant strains (as controls for phage infection) were grown and prepared at the screening center immediately prior to use. Overnight starting cultures of UTI89 were grown at 37° C., and inoculated into 1 liter of LB (starting OD600˜0.03), which was sufficient for screening 40 plates (including ˜10% waste) and ˜40,000 compounds as single points.
Control wells contained UTI89 (wt K1) with 0.5% DMSO as a simulated positive control; UTI89 with 0.5% DMSO and tetracycline for a negative growth control; and media plus vehicle control. 50 mL of LB Broth was inoculated with stock 150 μL E. coli UT189 and grown overnight at 37° C. The next day, cultures were diluted 1:75 in 1 L of LB Broth containing 0.5% DMSO. 3 μL of this culture was added to each plate well, and plates were incubated, inverted, at 37° C. for 2 hr. The K1F bacteriophage stock was diluted 1:8 in LB Broth containing 0.5% DMSO, and 1.5 μL of diluted phage (or media only) was added to the pre-plated test compound wells and appropriate control wells. The plates were centrifuged briefly, and then were incubated, inverted, at 37° C. for an additional 2 hr. Afterward, Alamar Blue reagent (Invitrogen, #DAL1100) was diluted 1:2 with LB broth and 1 μL was added to each plate well.

The subject of series [2] is E. coli K1 strain UTI89. The series is described as follows: Secondary assay 2: T7 phage-mediated lysis assay. It is filed as cell-based, Escherichia coli. Conditions: read-out: T7 phage IC50. From the text:
D. Secondary Assay 2: Screening for Inhibitors of Bacterial Capsule Biogenesis—T7 Lysis Inhibition
Purpose: This secondary assay measures the compound mechanistic specificity for inhibition of bacterial capsule formation and excludes inhibitors of phage replication using a different bacteriophage (T7). In this assay, an increase in phage-induced lysis correlates to a decrease in capsule formation.
Purpose: This secondary assay measures the compound mechanistic specificity for inhibition of bacterial capsule formation using a different bacterial phage (T7). In this assay, an increase in phage-induced lysis correlates to a decrease in capsule formation.
Assay Description: T7 phage-mediated lysis assay: This assay determined if the mechanism of action of the compound is inhibition of phage infectivity or replication. The T7 phage has a nearly identical genome to K1F, without encoding an endosialidase. Its cycle of replication is similar to that of K1F as well. However, T7 entry into E. coli is inhibited by K capsules. This secondary assay was conducted in the 96 well plate format. […] Compounds were added in quadruplicate to plates in a concentration dependent manner in the range of 100-0.39 μM, followed by addition of 100 μL of bacterial culture. 1% DMSO (final well concentration) was included. The plates were tape sealed and shaken vigorously for 1.5 hr. An initial OD600 reading was measured to identify compounds that cause growth retardation or bacterial killing in the absence of phage. Next, T7 phage (5 μL) was added to all of the test wells. The plates were resealed and shaken vigorously at 37° C., and measurements of OD600 for phage-mediated lysis were taken after 3 hr. True inhibitors of capsule yielded bacteria that were susceptible to T7 phage and lysed within 2 hr of the addition of phage. […] The positive control drug C7 (100 μM final well concentration) was used in this screen.
T7 phage counter assay. This secondary assay was performed as previously described and was used to distinguish compounds with phage inhibitory effects from true polysaccharide capsule inhibitors. […] Thus, the presence of a capsule inhibits T7-mediated lysis. In this assay, an increase in phage-induced lysis correlates to a decrease in capsule formation. True inhibitors of capsule yielded bacteria that were susceptible to T7 phage and lysed within 2 hr of the addition of phage. […] The positive control molecule C7 (100 μM final well concentration) was used in this screen.

The test system of series [3] is Bladder carcinoma 5637 cells. Briefly: Cytotoxicity counterscreen, CellTiter Glo, 72 hr. It is filed as cell-based, human. On the procedure: B. Counterscreen: Cytotoxicity Screening for Potential Inhibitors of Bacterial Capsule Biogenesis.
Purpose: This cell-based assay measures the cytotoxicity of compounds in bladder carcinoma 5637 cells using luminescent cell viability assay readout.
Cytotoxicity assay: The cytotoxicity assay was performed as described in Section 6: Appendix. Hit cytotoxicity and the 50% toxic concentration (CC50) was determined and compared to the IC50 to calculate the selectivity index.
Assay Description: Cytotoxicity: Dose response testing (dose range=300-0.58 μM) established the hit cytotoxicity data. Compounds were plated in 384-well microplates in a stacked dose response format using the same doses used in the efficacy dose response. Bladder carcinoma 5637 cells were added to the compounds, and 72 hr later cell viability was measured using CellTiter Glo (38). Hit cytotoxicity and the 50% toxic concentration (TC50) was determined and compared to the IC50 to calculate the therapeutic index. Test compounds are serially diluted in a plate to plate matrix or stacked plate matrix. All 320 compounds in a source plate are diluted together resulting in a 10 point dose response dilution series. It is visualized as a serial dilution series proceeding vertically through a stack of plates with the high dose plate on top and the low dose plate on the bottom.
Control Drug: Hyamine was used as a positive cytotoxic control. All wells contained 0.5% DMSO.
Preparation of Bladder carcinoma 5637 cells: Cells are harvested and resuspended to 80,000 cells per ml in Complete DMEM/F12®.
Endpoint Read: Following the three day incubation period, the assay plates were equilibrated to room temperature for 30 min and an equal volume (30 μL) of Cell Titer-Glo® reagent (Promega Inc.) is added to each well using a WellMate™ (Matrix, Hudson, N.H.) and plates are incubated for an additional 10 min at room temperature. At the end of the incubation, luminescence is measured using a Perkin Elmer Envision™ multi-label reader (PerkinElmer, Wellesley, Mass.) with an integration time of 0.1 s.
Cytotoxicity. Testing was performed essentially as previously described. Concentration-response testing was performed over a range 0.58-300 μM in a […] well plate format. Bladder carcinoma 5637 cells (ATCC HTB-9) were added to the compounds, and 72 hrs later cell viability was measured using CellTiter Glo (Promega). The 50% toxic concentration (TC50) was determined and compared to the IC50 to calculate the therapeutic index. Hyamine was used as a positive cytotoxic control. All wells contained 0.5% DMSO.
In general terms: The purpose of a counterscreen is to sort out artefacts and off-target activity.

The mark [4] stands for this setting: read-out: K1 phage IC50 (inhibition of K1 capsule formation).
Where [5] appears, read: read-out: K1 phage IC50, purchased analogue series, n = 3.
Setting [6] is: purchased analogue series, n = 2.
[7] abbreviates: first round of synthetic analogues, n = 2.

For orientation: IC50 means the concentration that inhibits the measured activity by half. Turning to `CCOc1ccc(-c2cc(NC(=O)c3c(F)cccc3F)c(C(=O)OC)s2)cc1` [CID 16012549], in series [1] (setting [4]), the half-maximal inhibitory concentration (IC50) is above 100 µM.

`CCOc1ccc(-c2cc(NC(=O)c3ccc(Br)o3)c(C(=O)O)s2)cc1` [CID 23602086, 3-(5-Bromofuran-2-carboxamido)-5-(4-ethoxyphenyl)thiophene-2-carboxylic acid]: the results for the IC50 in series [1] (setting [4]) and in series [2] (Escherichia coli) were 3.42 µM and below 10 µM, respectively.

With `COc1ccc(-c2cc(NC(=O)c3c(F)cccc3F)c(C(=O)O)s2)cc1` [CID 53470430], in series [1] (setting [4]), the IC50 is above 100 µM.

Consider `O=C(O)c1sc(-c2ccc(OCC(F)(F)F)cc2)cc1NC(=O)c1c(F)cccc1F` [CID 56643002], for which the IC50 in series [1] (setting [4]) was found to be 2.86 µM.

`CCCCOc1ccc(-c2cc(NC(=O)c3c(F)cccc3F)c(C(=O)O)s2)cc1` [CID 56643007]: the IC50 in series [1] (setting [4]) was below 0.78 µM.

With `O=C(O)c1sc(-c2ccc(OCCC(F)(F)F)cc2)cc1NC(=O)c1c(F)cccc1F` [CID 56643020], the IC50 is 0.84 µM in series [1] (setting [4]) and below 0.156 µM in series [2]. Besides, the “Cytotoxicity CC50 / TC50 / IC50” value in series [3] (bladder carcinoma 5637 cells) stood at 68.41 µM.

`CCCCOc1ccc(-c2cc(NC(=O)c3ccc(Br)o3)c(C(=O)O)s2)cc1` [CID 56643021]: the concentration for half-maximal inhibition (IC50) in series [1] (setting [4]) was 0.85 µM; in series [3], 43.4 µM; in series [2] (second round of synthetic analogues, n = 2), below 0.625 µM.

Regarding `O=C(Nc1cc(-c2ccc(OCCC(F)(F)F)cc2)sc1C(=O)O)c1ccc(Br)o1` [CID 56643022], the IC50 was 0.84 µM in series [1] (read-out: K1 phage IC50, five probe analogues); 41.7 µM in series [3]; below 0.625 µM in series [2] (five probe analogues).

`O=C(O)c1sc(-c2ccc(OCCCC(F)(F)F)cc2)cc1NC(=O)c1c(F)cccc1F` [CID 56643024]: the IC50 in series [1] (setting [4]) came out at 10.3 µM.

With `[N-]=[N+]=NCCOc1ccc(-c2cc(NC(=O)c3c(F)cccc3F)c(C(=O)O)s2)cc1` [CID 56643025], the half-inhibitory concentration (IC50) in series [1] (Escherichia coli, read-out: K1 phage IC50 (inhibition of K1 capsule formation)) was around 17 µM.

As a reminder, the % Inhibition is the relative decrease from the control value, in per cent. For the molecule `COC(=O)c1sc(-c2ccc(Cl)cc2)cc1NC(=O)c1ccccc1C(=O)O` [compound 2814791], in series [1], the “% Inhibition at 100 μM” value is given as −0.17%.

Consider `COC(=O)c1sc(-c2ccccc2)cc1NC(=O)c1ccc(F)cc1` [compound 3669658], for which the “% Inhibition at 100 μM” value in series [1] turned out to be 2.58%.

For the molecule `COC(=O)c1sc(-c2ccccc2)cc1NC(C)=O` [compound 4114774], in series [1], the “% Inhibition at 100 μM” value turned out to be 0.68%.

With `COC(=O)c1sc(-c2ccccc2)cc1NC(=O)c1ccccc1` [compound 6710528], the “% Inhibition at 100 μM” value in series [1] was determined as 4.18%.

Consider `O=C(Nc1cc(-c2ccccc2)sc1C(=O)O)c1cccs1` [compound 9945365], for which the values for the IC50 in series [1] (setting [5]), in series [3] and in series [2] (setting [6]) were 75.4 µM, 62 µM and 6.9 µM, respectively.

Take `CCOc1ccc(-c2cc(NC(=O)c3c(F)cccc3F)c(C(=O)OC)s2)cc1` [compound 16012549]: the IC50 in series [1] (setting [5]) was above 100 µM; in series [3] it was above 300 µM.

Turning to `O=C(O)c1sc(-c2ccccc2)cc1NC(=O)C1CCCCC1` [compound 16393057], the IC50 is above 100 µM in series [1] (setting [5]), 115 µM in series [3] and 65.2 µM in series [2] (setting [6]).

Take `O=C(O)c1sc(-c2ccccc2)cc1NC(=O)C1CCCC1` [compound 16393058]: the values for the IC50 in series [1] (setting [5]), in series [3] and in series [2] (setting [6]) were above 100 µM, 169 µM and 56.6 µM, respectively.

For the molecule `Cc1c(C(=O)Nc2cc(-c3ccccc3)sc2C(=O)O)oc2ccccc12` [compound 17546661], the IC50 in series [1] (setting [5]) was above 100 µM; in series [3], 48.7 µM; in series [2] (setting [6]), 33.3 µM.

In the case of `Cc1ccc(C(=O)Nc2cc(-c3ccccc3)sc2C(=O)O)s1` [compound 17546665], the 50% inhibitory concentration (IC50) in series [1] (setting [5]) is above 100 µM; in series [3], 63.6 µM; in series [2] (setting [6]), 29.7 µM.

For `O=C(Nc1cc(-c2ccccc2)sc1C(=O)O)c1ccc(Cl)s1` [compound 17547200], the concentration for half-maximal inhibition (IC50) in series [1] (setting [5]) is above 100 µM; in series [3], 71.5 µM; in series [2] (setting [6]), 15.1 µM.

Take `O=C(Nc1cc(-c2ccccc2)sc1C(=O)O)c1cc2ccccc2o1` [compound 17548073]: the IC50 in series [1] (setting [5]) was above 100 µM; in series [3], 167 µM; in series [2] (setting [6]), 6.7 µM.

With `CCOc1ccc(-c2cc(NC(=O)c3cccc(F)c3)c(C(=O)O)s2)cc1` [compound 23602076], the IC50 is 14.7 µM in series [1] (read-out: K1 phage IC50, first round of synthetic analogues, n = 3); 61.3 µM in series [3]; 2.61 µM in series [2] (setting [7]).

For the molecule `CCOc1ccc(-c2cc(NC(=O)c3ccc(Br)o3)c(C(=O)O)s2)cc1` [compound 23602086], the half-inhibitory concentration (IC50) in series [3] is 68.7 µM; in series [2] (setting [7]) it was below 0.625 µM.
